Values after ≈ are worked out from the molar mass of the structure shown. Active and inactive are the calls of the source. The rule behind the calls is not given here.
Key:
[1] = Cytotoxicity against African green monkey Vero cells assessed as reduction in cell viability after 24 hrs by microscopic method; format: cell-based; details: chlorocebus sabaeus
[2] = tested on: Tick-borne encephalitis virus; assay: Antiviral activity against TBEV Absettarov infected in PEK cells assessed as plaque reduction preincubated for 1 hr followed by overlaying with 1.26% methylcellulose and measured after 6 days by gentian violet staining-based assay; format: functional, organism-based
[3] = Cytotoxicity against African green monkey Vero cells assessed as reduction in cell viability after 7 days by microscopic method; format: cell-based; details: chlorocebus sabaeus
[4] = Cytotoxicity against PEK cells assessed as reduction in cell viability after 24 hrs by microscopic method; format: cell-based, Sus scrofa; details: pig
[5] = Cytotoxicity against PEK cells assessed as reduction in cell viability after 7 days by microscopic method; format: cell-based, Sus scrofa; details: pig
[6] = Cytotoxicity against human RD cells assessed as reduction in cell viability after 24 hrs by microscopic method; format: cell-based
[7] = Cytotoxicity against human RD cells assessed as reduction in cell viability after 7 days by microscopic method; format: cell-based
[8] = tested on: Enterovirus A71; assay: Antiviral activity against Enterovirus A71 isolate 46973 infected in human RD cells assessed as reduction in virus induced cytopathic effect preincubated with viral suspension for 1 hr followed by cell addition measured after 5 to 7 days; format: functional, organism-based
[9] = Cytotoxicity against PEK cells assessed as formation of syncytium-like patterns of cells at 50 uM after 7 days by microscopic method; format: cell-based, Sus scrofa; details: pig, 168 h
[10] = tested on: Vero; assay: Cytotoxicity against African green monkey Vero cells assessed as formation of syncytium-like patterns of cells at 50 uM after 7 days by microscopic method; format: cell-based; details: chlorocebus sabaeus, 168 h
[11] = tested on: RD; assay: Cytotoxicity against human RD cells assessed as formation of syncytium-like patterns of cells at 50 uM after 7 days by microscopic method; format: cell-based; details: 168 h
[12] = tested on: Poliovirus 1; assay: Antiviral activity against poliovirus type 1 sabin 1; format: functional, organism-based
[13] = tested on: Echovirus; assay: Antiviral activity against Echovirus 30 isolate 48461; format: functional, organism-based
[14] = Cytotoxicity against PEK cells assessed as reduction in metabolic activity at >20 uM after 24 hrs by CellTiter-Blue assay; format: ADME, cell-based, Sus scrofa; details: pig
[15] = tested on: Vero; assay: Cytotoxicity against African green monkey Vero cells assessed as reduction in metabolic activity at >20 uM after 24 hrs by CellTiter-Blue assay; format: ADME, cell-based; details: chlorocebus sabaeus
[16] = tested on: RD; assay: Cytotoxicity against human RD cells assessed as reduction in metabolic activity at >20 uM after 24 hrs by CellTiter-Blue assay; format: ADME, cell-based
[17] = tested on: Human alphaherpesvirus 1; assay: Antiviral activity against HSV-1 infected in African green monkey Vero cells preincubated with virus for 5 mins; format: functional, organism-based; details: Human alphaherpesvirus 1, Vero
[18] = Solubility of compound in 15% DMSO by spectrophotometric analysis; format: physicochemical
[19] = tested on: Human alphaherpesvirus 2; assay: Antiviral activity against HSV-2 infected in African green monkey Vero cells assessed as plaque reduction preincubated for 10 mins inocula removed after 1 hr followed by overlaying with 2% methylcellulose and measured after 1 to 2 days by crystal violet staining based assay; format: functional, organism-based; details: Human alphaherpesvirus 2, Vero
[20] = tested on: Sindbis virus; assay: Antiviral activity against Sindbis virus infected in African green monkey Vero cells assessed as plaque reduction preincubated for 10 mins inocula removed after 1 hr followed by overlaying with 2% methylcellulose and measured after 1 to 2 days by crystal violet staining based assay; format: functional, organism-based
[21] = tested on: Hepatitis C virus; assay: Antiviral activity against HCV JFH1 infected in human Huh7.5 cells assessed as NS3 expression by western blot analysis; format: functional, organism-based, Hepacivirus hominis; details: JFH1, Huh7.5
[22] = tested on: Vesicular stomatitis virus; assay: Antiviral activity against VSV infected in African green monkey Vero cells assessed as plaque reduction preincubated for 10 mins inocula removed after 1 hr followed by overlaying with 2% methylcellulose and measured after 1 to 2 days by crystal violet staining based assay; format: functional, organism-based
[23] = tested on: Influenza A virus; assay: Antiviral activity against influenza A virus H1N1 infected in dog MDCK cells assessed as plaque reduction preincubated for 10 mins inocula removed after 1 hr followed by overlaying with 0.8% agarose and measured after 1 to 2 days by crystal violet staining based assay; format: functional, organism-based
[24] = tested on: Influenza A virus; assay: Antiviral activity against influenza A virus H3N2 infected in dog MDCK cells assessed as plaque reduction preincubated for 10 mins inocula removed after 1 hr followed by overlaying with 0.8% agarose and measured after 1 to 2 days by crystal violet staining based assay; format: functional, organism-based
[25] = Selectivity index, ratio of CC50 for African green monkey Vero cells to EC50 for VSV infected in Vero cells; format: toxicity, cell-based; details: read-out: Ratio CC50/EC50
[26] = tested on: Murid betaherpesvirus 1; assay: Antiviral activity against mCMV infected in mouse NIH3T3 cells assessed as reduction in virus induced cytopathogenicity; format: functional, organism-based; details: Murid betaherpesvirus 1, NIH3T3
[27] = Selectivity index, ratio of CC50 for human Huh7.5 cells to EC50 for HCV JFH1 infected in Huh7.5 cells; format: toxicity, cell-based; details: read-out: Ratio CC50/EC50
[28] = Selectivity index, ratio of CC50 for African green monkey Vero cells to EC50 for Sindbis infected in Vero cells; format: toxicity, cell-based; details: read-out: Ratio CC50/EC50
[29] = Selectivity index, ratio of CC50 for African green monkey Vero cells to EC50 for HSV-1 infected in Vero cells; format: toxicity, cell-based; details: read-out: Ratio CC50/EC50
[30] = Selectivity index, ratio of CC50 for African green monkey Vero cells to EC50 for HSV-2 infected in Vero cells; format: toxicity, cell-based; details: read-out: Ratio CC50/EC50
[31] = Selectivity index, ratio of CC50 for MDCK cells to EC50 for H1N1 infected in MDCK cells; format: toxicity, cell-based; details: dog, read-out: Ratio CC50/EC50
[32] = Selectivity index, ratio of CC50 for MDCK cells to EC50 for H3N2 infected in MDCK cells; format: toxicity, cell-based; details: dog, read-out: Ratio CC50/EC50
[33] = Selectivity index, ratio of CC50 for mouse NIH3T3 cells to EC50 for mCMV infected in NIH3T3 cells; format: toxicity, cell-based; details: read-out: Ratio CC50/EC50
[34] = Enterovirus A, isolate 46973, RD, read-out: EC50

| Structure (SMILES) | CC50 at 24 h [1] [µM] | EC50 [2] [µM] | CC50 at 168 h [3] [µM] | CC50 at 24 h [4] [µM] | CC50 at 168 h [5] [µM] | CC50 at 24 h [6] [µM] | CC50 at 168 h [7] [µM] | Activity [9] | Activity [10] | Activity [11] | Activity [12] | Activity [13] | EC50 [8] | other results |
| --- | --- | --- | --- | --- | --- | --- | --- | --- | --- | --- | --- | --- | --- | --- |
| CC(C)(CO)[C@@H](O)CNC(=O)Cn1cc(C#Cc2ccc3c4cccc5cccc(c6cccc2c63)c54)c(=O)[nH]c1=O | 38 | 0.019 | > 50 | > 50 | > 50 | 76 | 76 | Toxic | Toxic | Toxic | inactive | inactive | – | EC50 [8, 34]: 108 µM; Activity [14]: Non-Toxic; Activity [15]: Non-Toxic; Activity [16]: Toxic |
| CC(C)(C)C(=O)OC[C@@H]1CC[C@H](n2cc(C#Cc3ccc4c5cccc6cccc(c7cccc3c74)c65)c(=O)[nH]c2=O)O1 | – | – | – | – | – | – | – | – | – | – | – | – | – | EC50 [17]: 0.19 µM |
| CC(C)(C)C(=O)OCn1c(=O)c(C#Cc2ccc3c4cccc5cccc(c6cccc2c63)c54)cn(CC(=O)NC[C@H](O)C(C)(C)CO)c1=O | > 50 | 0.00079 | > 50 | > 50 | > 50 | 19 | 19 | Toxic | Toxic | Toxic | inactive | inactive | Not Active | – |
| CC(C)(C)C(=O)OCn1c(=O)c(C#Cc2ccc3c4cccc5cccc(c6cccc2c63)c54)cn(CC(=O)NCCCO)c1=O | 38 | 0.00043 | > 50 | > 50 | > 50 | 19 | 10 | Toxic | Toxic | Toxic | inactive | inactive | Not Active | solubility [18]: 49 µM (≈ 30.2 µg/mL) |
| O=C(Cn1cc(C#Cc2ccc3c4cccc5cccc(c6cccc2c63)c54)c(=O)[nH]c1=O)NCCCCCCO | 38 | 0.0061 | > 50 | > 50 | > 50 | 19 | 38 | Toxic | Toxic | Toxic | inactive | inactive | Not Active | – |
| CC(C)(C)C(=O)OCn1c(=O)c(C#Cc2ccc3c4cccc5cccc(c6cccc2c63)c54)cn(CC(=O)NCCCCCO)c1=O | 32 | 0.0016 | > 50 | > 50 | > 50 | 19 | 10 | Toxic | Toxic | Toxic | inactive | inactive | Not Active | – |
| CC(C)(C)C(=O)OCn1c(=O)c(C#Cc2ccc3c4cccc5cccc(c6cccc2c63)c54)cn(CC(=O)N(CCO)CCO)c1=O | 38 | 0.00044 | > 50 | > 50 | > 50 | 19 | 14 | Toxic | Toxic | Toxic | inactive | inactive | Not Active | solubility [18]: 1000 µM (≈ 648 µg/mL) |
| O=c1[nH]c(=O)n([C@@H]2O[C@H](CO)[C@@H](O)[C@@H]2O)cc1C#Cc1ccc2c3cccc4cccc(c5cccc1c52)c43 | – | 0.021 | – | > 50 | > 50 | – | – | Toxic | Toxic | Toxic | inactive | inactive | – | EC50 [17]: 0.002 to 0.283 µM; EC50 [19]: 0.002 to 0.283 µM; EC50 [20]: 0.002 to 0.283 µM; EC50 [21]: 0.002 to 0.283 µM; EC50 [22]: 0.002 to 0.283 µM; EC50 [23]: 0.002 to 0.283 µM; EC50 [24]: 0.002 to 0.283 µM; selectivity ratio [25]: > 3000; EC50 [26]: 0.002 to 0.283 µM; selectivity ratio [27]: > 3000; selectivity ratio [28]: > 3000; selectivity ratio [29]: > 3000; selectivity ratio [30]: > 3000; selectivity ratio [31]: > 3000; selectivity ratio [32]: > 3000; selectivity ratio [33]: > 3000 |
| CC(C)(C)C(=O)OCn1c(=O)c(C#Cc2ccc3c4cccc5cccc(c6cccc2c63)c54)cn(CC(=O)NCCO)c1=O | 32 | 0.0021 | 38 | > 50 | > 50 | 19 | 38 | Toxic | Toxic | Toxic | inactive | inactive | Not Active | – |
| CC(C)(C)C(=O)OCn1c(=O)c(C#Cc2ccc3c4cccc5cccc(c6cccc2c63)c54)cn(CC(=O)NCCCCO)c1=O | > 50 | 0.00069 | > 50 | > 50 | > 50 | 19 | 38 | Toxic | Toxic | Toxic | inactive | inactive | Not Active | solubility [18]: 5.3 µM (≈ 3.34 µg/mL) |
| O=c1[nH]c(=O)n([C@H]2CC[C@@H](CO)O2)cc1C#Cc1ccc2c3cccc4cccc(c5cccc1c52)c43 | – | – | – | – | – | – | – | – | – | – | – | – | – | EC50 [17]: 0.087 µM |
| O=c1[nH]c(=O)n([C@H]2C[C@H](O)[C@@H](CO)O2)cc1C#Cc1ccc2c3cccc4cccc(c5cccc1c52)c43 | – | – | – | – | – | – | – | – | – | – | – | – | – | EC50 [17]: 0.048 µM; EC50 [19]: 0.002 to 0.283 µM; EC50 [20]: 0.002 to 0.283 µM; EC50 [21]: 0.002 to 0.283 µM; EC50 [22]: 0.002 to 0.283 µM; EC50 [23]: 0.002 to 0.283 µM; EC50 [24]: 0.002 to 0.283 µM; selectivity ratio [25]: > 3000; EC50 [26]: 0.002 to 0.283 µM; selectivity ratio [27]: > 3000; selectivity ratio [28]: > 3000; selectivity ratio [29]: > 3000; selectivity ratio [30]: > 3000; selectivity ratio [31]: > 3000; selectivity ratio [32]: > 3000; selectivity ratio [33]: > 3000 |
| O=C(O)Cn1cc(C#Cc2ccc3c4cccc5cccc(c6cccc2c63)c54)c(=O)[nH]c1=O | > 50 | 0.05 | > 50 | > 50 | > 50 | 61 | 65 | Toxic | Toxic | Toxic | inactive | inactive | Not Active | – |
| O=C(Cn1cc(C#Cc2ccc3c4cccc5cccc(c6cccc2c63)c54)c(=O)[nH]c1=O)NCCCCO | > 50 | 0.02 | > 50 | > 50 | > 50 | 76 | 81 | Toxic | Toxic | Toxic | inactive | inactive | – | EC50 [8, 34]: 56 µM; Activity [14]: Non-Toxic; Activity [15]: Non-Toxic; Activity [16]: Toxic |

Reference: ChEMBL document CHEMBL4346677, “Compounds based on 5-(perylen-3-ylethynyl)uracil scaffold: High activity against tick-borne encephalitis virus and non-specific activity against enterovirus A” (Eur J Med Chem, 2019)
